Source: US20030139442A1, “Vasoactive agents” (priority 2002, published 2003)

Target: T1, human GPR14 (Homo sapiens, UniProt Q9UKP6)
T1 construct: expressed in transfected cells
T1 sequence (Q9UKP6 1-389): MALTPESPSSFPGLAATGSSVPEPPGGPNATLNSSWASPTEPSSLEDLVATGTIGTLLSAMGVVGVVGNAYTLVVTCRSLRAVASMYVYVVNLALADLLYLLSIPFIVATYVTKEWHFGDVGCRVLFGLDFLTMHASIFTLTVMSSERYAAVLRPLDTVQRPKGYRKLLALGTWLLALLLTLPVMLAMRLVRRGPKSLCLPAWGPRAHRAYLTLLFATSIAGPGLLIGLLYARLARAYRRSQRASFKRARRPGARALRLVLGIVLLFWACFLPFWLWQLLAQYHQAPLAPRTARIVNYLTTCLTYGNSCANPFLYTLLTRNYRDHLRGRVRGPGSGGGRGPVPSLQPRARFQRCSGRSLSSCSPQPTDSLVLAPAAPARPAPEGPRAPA
Assay: Inhibition of binding of [125I]-labeled human urotensin II to GPR14 using human GPR14-expressing CHO cell fraction
Details: 1 nM [125I]-labeled human urotensin II; human GPR14-expressing CHO cell membrane fraction; 25° C., 3 hours; read-out: Inhibitory concentration (concentration showing 50% inhibition of human GPR14 binding activity)
Description: To 1×10^8 CHO/GPR14 cells were added 10 ml of homogenate buffer (10 mM NaHCO3, 5 mM EDTA, 0.5 mM PMSF, 1 μg/ml pepstatin, 4 μg/ml E64, 20μg/ml leupeptin), and disrupted using Polytron (12,000 rpm, 1 minute). Cell debris solution was centrifuged at 1,000 g for 15 minutes to obtain a supernatant. The supernatant was then […] (in Beckman type 30 rotor, 30,000 rpm, 1 hour), and the resultant precipitant was collected as human GPR14-expressing CHO cell fraction.
Isotope-labeled human urotensin II to be used in experiments for testing inhibition of binding was prepared as described below. 5 μg of human urotensin II (available from Peptide Institute, Inc.) was dissolved in 25 μl of 0.4M sodium acetate (pH 5.6). […]
Human GPR14-expressing CHO cell fraction was diluted in a membrane diluting buffer (20 mM phosphate buffer (pH7.3), 150 mM NaCl, 5 mM MgCl2, 0.1% BSA, 0.05% CHAPS, 0.5 mM PMSF, 0.1 μg/ml Pepstatin, 20 μg/ml Leupeptin, 4 μg/ml E-64) to prepare a solution of cell membrane fraction (protein concentration:3 μg/ml) for assay. […] Next, the filter was washed three times with membrane diluting buffer (0.2 ml), added with 20 μl of Microscinti 20 (Packard), and determined for radioactivity in Topcount (Packard). Specific-binding is calculated by subtracting non-specific binding from the total binding. […]

Question: For `Nc1c2c(nc3ccc(-c4ccsc4)cc13)N(Cc1ccccc1)CC2` [compound 3], which IC50 is on record?
Answer: 33 nM
